Measured values as given in ChEMBL document CHEMBL6087395, “NGT: Generative AI with Synthesizability Guarantees Discovers MC2R Inhibitors from a Tera-Scale Virtual Screen” (J Med Chem, 2024).

What was measured:
[1] = Antagonist activity at human MC2 receptor expressed in HEK293 cells assessed as inhibition of ACTH-induced cAMP accumulation measured after 70 mins incubation by fluorescence analysis; settings: HEK293, 70 min
Melanocortin receptor 3 = Melanocortin receptor 3 (Homo sapiens, UniProt P41968); assay: Antagonist activity at human MC3 receptor expressed in HEK293 cells assessed as inhibition of ACTH-induced cAMP accumulation measured after 70 mins incubation by fluorescence analysis; format: functional, cell-based
Chain of Melanocortin receptor 3 (P41968 whole entry): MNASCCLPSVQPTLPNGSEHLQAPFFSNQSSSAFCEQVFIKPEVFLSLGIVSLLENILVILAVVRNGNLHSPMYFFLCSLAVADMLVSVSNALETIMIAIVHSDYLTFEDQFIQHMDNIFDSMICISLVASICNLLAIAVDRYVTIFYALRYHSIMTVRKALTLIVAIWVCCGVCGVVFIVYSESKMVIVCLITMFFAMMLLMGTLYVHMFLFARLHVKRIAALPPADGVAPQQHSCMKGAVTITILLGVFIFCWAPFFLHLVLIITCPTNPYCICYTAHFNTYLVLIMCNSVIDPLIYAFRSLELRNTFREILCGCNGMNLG

Melanocortin receptor 4 = Melanocortin receptor 4 (Homo sapiens, UniProt P32245); assay: Antagonist activity at human MC4 receptor expressed in HEK293 cells assessed as inhibition of ACTH-induced cAMP accumulation measured after 70 mins incubation by fluorescence analysis; format: functional, cell-based
Chain of Melanocortin receptor 4 (P32245 whole entry): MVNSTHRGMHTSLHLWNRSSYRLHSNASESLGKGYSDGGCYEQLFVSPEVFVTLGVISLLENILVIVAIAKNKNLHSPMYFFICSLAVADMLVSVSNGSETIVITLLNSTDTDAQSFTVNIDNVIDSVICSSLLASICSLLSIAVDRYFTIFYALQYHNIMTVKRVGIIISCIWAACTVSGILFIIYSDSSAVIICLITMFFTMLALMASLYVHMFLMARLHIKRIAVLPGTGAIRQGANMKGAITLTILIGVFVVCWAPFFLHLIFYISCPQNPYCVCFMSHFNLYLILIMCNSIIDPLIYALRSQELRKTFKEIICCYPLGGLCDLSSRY

Melanocortin receptor 5 = Melanocortin receptor 5 (Homo sapiens, UniProt P33032); assay: Antagonist activity at human MC5 receptor expressed in HEK293 cells assessed as inhibition of ACTH-induced cAMP accumulation measured after 70 mins incubation by fluorescence analysis; format: functional, cell-based
Chain of Melanocortin receptor 5 (P33032 whole entry): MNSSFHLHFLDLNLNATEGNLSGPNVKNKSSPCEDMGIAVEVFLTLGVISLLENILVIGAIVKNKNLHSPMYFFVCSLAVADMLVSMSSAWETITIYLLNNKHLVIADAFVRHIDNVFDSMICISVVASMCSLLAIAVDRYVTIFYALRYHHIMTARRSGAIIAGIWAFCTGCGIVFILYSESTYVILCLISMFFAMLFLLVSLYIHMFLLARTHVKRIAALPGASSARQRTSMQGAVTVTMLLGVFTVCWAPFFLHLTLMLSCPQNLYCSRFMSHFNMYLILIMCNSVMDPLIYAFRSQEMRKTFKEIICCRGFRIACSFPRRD

Row | EC50 [1] [µM] | EC50 (Melanocortin receptor 3) [µM] | EC50 (Melanocortin receptor 4) [µM] | EC50 (Melanocortin receptor 5) [µM] | SMILES
1 | 4.1 | 37 | 31 | 13 | COc1ccc(C(CN(C)C)NC(=O)COc2ccc(-c3cccc4c3OCC4)cc2Cl)cc1 (stereo not given)
2 | – | 19 | – | – | CCCN1CC(NC(=O)[C@@H]2C[C@H]2c2cccc(-c3cc(Cl)ccc3OC)c2Cl)C1
3 | – | 33 | – | – | CCc1ccc(-c2cc(CNC3CCN(c4ccccc4C(N)=O)C3)c(OC)cc2F)s1 (stereo not given)

Second part, the compound before the results:

Row | SMILES | EC50 [1] [µM] | EC50 (Melanocortin receptor 3) [µM] | EC50 (Melanocortin receptor 4) [µM] | EC50 (Melanocortin receptor 5) [µM]
4 | CC1CC(N2CCCC2)CN1C(=O)c1cc(O)cc(-c2cc(Cl)ccc2F)c1 (stereo not given) | 6.7 | 94 | 425 | 154
5 | O=C1NCCOc2ccc(CNCC3(c4ccc(C=C5CCSCC5)s4)CCC3)cc21 | 11 | 33 | 32 | 31
6 | COc1cc(C)c(-c2c(C)c(C)c(C(=O)NCC3CCCN3CCCO)c(C)c2C)cc1C (stereo not given) | – | 156 | – | 150
7 | Cc1ccc(-c2cc(Cl)cs2)cc1C1(C(=O)NC2CN(C3CCC3)C2)CC1 | – | – | – | 16
8 | COCCNC(=O)C(C1CC2(C1)CC21CCC1)N(C(=O)c1cn(C)cn1)C1CCCN(c2cccc(C)c2)C1 (stereo not given) | 7 | 32 | 33 | 72
9 | O=C(NCC(F)F)C(C1CC2(C1)CC21CCC1)N(C(=O)c1cc2c(cn1)CCCC2)[C@H]1C[C@@H](N2CCCC2)C1 (stereo not given in full) | 38 | 50 | 36 | 102
